Results reported in patent US20100221502A1, “Anthrapyridone Compound and Salt Thereof, Magenta Ink Composition Containing the Anthrapyridone Compound, and Colored Article” (priority 2005, published 2010).

Assays:
Type in all cases: physicochemical
[1] = Evaluation of hue on glossy paper (L*, a*, b*, C* of inkjet recorded image); parameters: key to Lightness L*: CIELAB L* lightness value; key to Chromaticity a*: CIELAB a* chromaticity value; key to Chromaticity b*: CIELAB b* chromaticity value; settings: for Chroma C*: C*=((a*)^2+(b*)^2)^1/2; for Chromaticity a* / Chromaticity b* / Lightness L*: ink with 6.0 parts compound
From the text: The compound (Compound Example No. 1) obtained in the above Example 1 was used to prepare a solution of the composition shown in the following Table 2, which was filtrated with a 0.45 μm membrane filter for removing insoluble matter to obtain each water-based ink composition for inkjet recording. And ion-exchanged water was used as water. In addition, the pH of the ink composition was adjusted to pH=8 to 10 with a 25% caustic soda aqueous solution, and water was further added so that the whole weight was 100 parts. Example 5 is the test using the compound obtained in Example 1.
(§1) Using an ink jet printer (manufactured by Canon Inc., trade name: Pixus 860i), inkjet recording was performed on glossy paper (manufactured by Canon Inc., trade name: Professional Photo Paper PR-101) having an ink image-receiving layer containing porous white inorganic substance and photo paper (glossy) manufactured by SEIKO-EPSON CORPORATION. In inkjet recording, an image pattern was made to obtain gradations of several stages in printing density and a print was made.
For the hue and vividness of recorded image, printed recording paper was measured using a Color Calibration Systems (trade name: GRETAG SPM50, manufactured by GretagMacbeth AG) to calculate values of L*, a* and b*, and chroma (C*) showing vividness was calculated from chromaticity (a*, b*) by C*=((a*)^2+(b*)^2)^1/2. The hue was evaluated by comparing with a sample of standard magenta in Japan Color manufactured by JPMA (Industry Association: Japan Printing Machinery Association).
In this connection, paper used for standard magenta in Japan Color was Japan Color Standard Paper.

[2] = Moisture fastness test of recorded image; parameters: key: ∘: Bleed is not observed.; Δ: Bleed is observed on small degree.; ×: Bleed is observed on large degree; settings: 168 hours, 30° C., 85% RH, bleed by visual observation
Experimental: as §1
Using a thermo-hygrostat (manufactured by OHKEN, Co., LTD), pieces of printed testing paper of glossy paper manufactured by Canon, Inc. and glossy paper manufactured by SEIKO-EPSON CORPORATION were left for 168 hours at a temperature of 30° C. and a humidity of 85% RH. Bleed property before and after the test was determined by visual observation and evaluated on 3 levels.
∘: Bleed is not observed.
Δ: Bleed is observed on small degree.
×: Bleed is observed on large degree.

[3] = Ozone gas fastness test of recorded image; settings: any of glossy papers of CANON INC. and SEIKO-EPSON CORPORATION
Experimental: Using an ink jet printer (manufactured by Canon Inc., trade name: Pixus 860i), inkjet recording was performed on glossy paper (manufactured by Canon Inc., trade name: Professional Photo Paper PR-101) having an ink image-receiving layer containing porous white inorganic substance and photo paper (glossy) manufactured by SEIKO-EPSON CORPORATION. In inkjet recording, an image pattern was made to obtain gradations of several stages in printing density and a print was made. Using an ozone weatherometer (manufactured by Suga Test Instruments Co., Ltd.), pieces of printed testing paper of glossy paper manufactured by Canon, Inc. and glossy paper manufactured by SEIKO-EPSON CORPORATION were left for 3 hours under the circumstances of an ozone concentration of 12 ppm, a humidity of 60% RH and a temperature of 24° C. Color difference (ΔE) before and after the test was measured and evaluation was performed on 3 levels. [formula] [formula] [formula]

[4] = Xenon light fastness test of recorded image; settings: any of glossy papers of CANON INC. and SEIKO-EPSON CORPORATION
Experimental: as §1
Using a xenon weatherometer Ci4000 (manufactured by ATLAS Electric Devices Co.), pieces of printed testing paper of glossy paper manufactured by Canon, Inc. and glossy paper manufactured by SEIKO-EPSON CORPORATION, on which an air layer was provided and a glass plate having a thickness of 2 mm was set up, were irradiated for 50 hours at an illuminance of 0.36 W/m^2 under the circumstances of a humidity of 60% RH and a temperature of 24° C. Color difference (ΔE) before and after the test was measured and the evaluation was performed on 3 levels.

[5] = Glossy paper manufactured by Canon Inc.
[6] = Glossy paper manufactured by SEIKO-EPSON CORPORATION
[7] = Glossy paper manufactured by CANON INC.

Chroma C* [1, 5] | Chromaticity a* [1, 5] | Chromaticity b* [1, 5] | Lightness L* [1, 5] | Chroma C* [1, 6] | Chromaticity a* [1, 6] | Chromaticity b* [1, 6] | Lightness L* [1, 6] | Moisture fastness [2, 7] | Moisture fastness [2, 6] | Ozone gas fastness (in words) [3] | Light fastness (in words) [4] | Structure (SMILES)
88.2 | 88.2 | −2.9 | 57.8 | 82.3 | 82.3 | −1.7 | 56.1 | ∘ | ∘ |  |  | O=C(c1cccc(S(=O)(=O)O)c1)c1c2c3c(c(Nc4cc(Nc5nc(O)nc(Nc6ccccc6S(=O)(=O)O)n5)c(S(=O)(=O)O)cc4S(=O)(=O)O)cc(Oc4ccc(-c5ccc(S(=O)(=O)O)cc5)cc4S(=O)(=O)O)c3[nH]c1=O)C(=O)c1ccccc1-2 [Example 5 (No. 1)]
81.3 | 81.0 | −6.7 | 49.8 | 80.4 | 79.9 | −9.5 | 49.5 | ∘ | ∘ | a drawback in ozone gas fastness | has a problem in light fastness | Cn1c(=O)cc2c3c(c(Nc4cc(Nc5nc(O)nc(Nc6cc(S(=O)(=O)O)ccc6S(=O)(=O)O)n5)ccc4S(=O)(=O)O)ccc31)C(=O)c1ccccc1-2 [Comparative Example 1, reference compound]
78.6 | 78.7 | 1.0 | 54.8 | 77.6 | 77.4 | −2.6 | 57.2 | ∘ | ∘ |  |  | O=C(O)c1cc(Nc2nc(O)nc(Nc3cc(Nc4cc(Oc5ccc(-c6ccc(S(=O)(=O)O)cc6)cc5S(=O)(=O)O)c5[nH]c(=O)c(C(=O)c6cccc(S(=O)(=O)O)c6)c6c5c4C(=O)c4ccccc4-6)c(S(=O)(=O)O)cc3S(=O)(=O)O)n2)cc(C(=O)O)c1 [Example 7 (No. 11)]
82.1 | 82.1 | 0.5 | 55.4 | 80.5 | 80.6 | −2.2 | 56.1 | ∘ | ∘ |  |  | O=C(O)c1ccccc1Nc1nc(O)nc(Nc2cc(Nc3cc(Oc4ccc(-c5ccc(S(=O)(=O)O)cc5)cc4S(=O)(=O)O)c4[nH]c(=O)c(C(=O)c5cccc(S(=O)(=O)O)c5)c5c4c3C(=O)c3ccccc3-5)c(S(=O)(=O)O)cc2S(=O)(=O)O)n1 [Example 6 (No. 8)]
